Like-named read-outs stand apart in the source and are kept apart here.
Tests used:
MDA-MB-231 cells [1] = assay: MTT cell proliferation assay; type: cell-based, human; conditions: for IC50: read-out: IC50 (MTT, inhibition of cell proliferation)
Experimental: Human breast cancer MDA-MB-231 cells were obtained from American Type Culture Collection (Manassas, VA) and grown in DMEM/F12 supplemented with 10% fetal bovine serum, 1 mM sodium pyruvate, 10 mM HEPES, 100 U/mL penicillin and 100 µg/mL streptomycin. Cells were grown in a humidified incubator with 5% CO2 at 37°C. Cells were seeded in octuplicate in 96-well plates and grown to 70%–80% confluence, followed by treatment with DMSO (control) or each compound (dissolved in DMSO) in fresh medium at the indicated concentrations. After 24 or 72 hours incubation at 37°C, inhibition of cell proliferation was measured by MTT assay, as previously described. The cytotoxicity of the compounds was quantified as the percentage of cells surviving relative to untreated cells. Four MTT tests for each compound were performed in order to evaluate the corresponding IC50 values.

MDA-MB-231 cells [2] = assay: MTT assay with ROS scavenger Trolox (pretreatment or co-treatment); type: cell-based, human; conditions: for reduction of IC50 by co-treatment with Trolox: MDA-MB-231, 24 h co-treatment with Trolox 100 µM
Experimental: In order to investigate whether cell death is affected by free radicals produced in situ by our compounds, cells were seeded in quadruplicate and treated with both complexes and Trolox. We first pretreated cells for 1 h with Trolox at 100 µM and after changing medium, treated cells with compounds and incubated for an additional 24 h. Alternatively, we co-treated cells for 24 h with both compounds and Trolox (100 µM), followed by MTT assay.

[3] = target: T1, proteasome of MDA-MB-231 cell extract (Homo sapiens, UniProt P28072+P28074+Q99436); assay: Proteasome activity assay on MDA-MB-231 whole-cell extract; type: biochemical; conditions: 2 h incubation
T1 construct: endogenous in cells; host or cells: MDA-MB-231 whole-cell extract
T1 sequence (P28074 60-263): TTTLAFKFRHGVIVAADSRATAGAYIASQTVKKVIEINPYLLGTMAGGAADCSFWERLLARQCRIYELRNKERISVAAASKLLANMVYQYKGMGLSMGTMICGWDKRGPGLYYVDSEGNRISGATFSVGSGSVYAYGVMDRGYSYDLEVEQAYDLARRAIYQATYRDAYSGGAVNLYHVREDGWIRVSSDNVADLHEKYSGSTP
T1 sequence (P28072 1-239): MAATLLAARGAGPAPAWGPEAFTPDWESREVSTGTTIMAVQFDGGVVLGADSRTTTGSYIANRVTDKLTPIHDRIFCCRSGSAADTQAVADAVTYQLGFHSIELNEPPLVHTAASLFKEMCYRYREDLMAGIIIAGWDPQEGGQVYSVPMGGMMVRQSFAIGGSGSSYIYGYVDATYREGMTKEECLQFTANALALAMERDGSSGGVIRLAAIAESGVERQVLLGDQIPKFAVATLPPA
T1 sequence (Q99436 44-277): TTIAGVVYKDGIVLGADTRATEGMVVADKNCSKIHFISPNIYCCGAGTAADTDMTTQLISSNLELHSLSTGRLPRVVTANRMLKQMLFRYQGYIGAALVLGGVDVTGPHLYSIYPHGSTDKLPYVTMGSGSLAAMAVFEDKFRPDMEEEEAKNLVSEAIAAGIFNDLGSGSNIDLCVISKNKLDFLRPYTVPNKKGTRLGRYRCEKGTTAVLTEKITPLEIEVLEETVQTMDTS
Experimental: Likewise, MDA-MB-231 whole-cell extract (10 µg/well) was incubated in quadruplicate with each complex and each fluorogenic substrate in 100 µL of assay buffer [20 mM Tris-HCl (pH 7.5)]. Fluorescence data were acquired after 1 hour and 2 hours incubation at 37°C. The whole-cell extract was prepared as described elsewhere.

p27 = assay: Western blot of p27 in treated cells; type: cell-based, human; conditions: MDA-MB-231, 24 h
Experimental: MDA-MB-231 cells were grown to around 75% confluence, treated with gold-based complexes or solvent as a control, harvested, and lysed. Cell lysates (30 µg/lane) were separated by SDS-PAGE and transferred to a nitrocellulose membrane. After blocking of non-specific binding (5% non-fat dry milk in Tris-Buffered Saline with Tween 20-TBST), membranes were incubated overnight at 4°C with primary antibodies, followed by washing with TBST and incubation for 2 h with secondary antibodies. Bands of interest were visualized using HyGLO Chemiluminescent HRP Antibody detection reagent, HyBlot Chemiluminescence films (Denville Scientific Inc.; Metuchen, NJ) and a HOPE Micro-MAX film processor.

MDA-MB-231 cells [4] = assay: Cellular morphology (phase contrast imaging); type: cell-based, human; conditions: MDA-MB-231, 24 h
Source text: A Zeiss (Thornwood, NY) Axiovert 25 microscope was used for cellular morphology microscopic imaging with phase contrast.

MDA-MB-231 xenografts [5] = assay: Human breast tumor xenograft growth; type: in vivo, female athymic nude mice; conditions: 1.0 mg kg^−1 d^−1 s.c.
Experimental: Seven-week-old female athymic nude mice were purchased from Harlan Laboratories (Indianapolis, USA) and housed in accordance with protocols approved by the Institutional Laboratory Animal Care and Use Committee of Wayne State University. Human breast cancer MDA-MB-231 cells suspended in 0.1 mL of serum-free DMEM/F12 cell growth medium were inoculated subcutaneously (s.c.) into the right flank of each mouse. When tumors reached a volume of around 115 mm^3, the mice were randomly allocated into three groups (seven mice per group) and treated five days a week by s.c. injection of either vehicle [1∶1∶1 v/v PBS, DMSO, Cremophore/ethanol (1∶4)] or medium containing 1.0 mg/kg of AuD6 or AuD8. Tumor length (L) and width (W) were measured every other day using a caliper, and tumor volumes were evaluated according to the standard formula (π ⋅ L ⋅ W^2)/6. Mouse weights were monitored weekly. Four mice per group were sacrificed after 27 days of treatment, or when tumors reached ∼1,800 mm^3, and the remaining three mice per group were sacrificed after 13 days to observe any early effects of treatments. The tumors were collected and weighed. Tumor tissues were used to measure proteasome inhibition and caspase-3 activation by enzymatic activity assays and by Western blot analysis. […]

[6] = target: T2, proteasomal CT-like activity (Homo sapiens, UniProt P28074); assay: Proteasomal CT-like activity in xenograft tumor tissue; type: in vivo, female athymic nude mice; conditions: xenograft tumors, 1 mg kg^−1 d^−1, after 27 days of treatment
T2 construct: from tissue; host or cells: MDA-MB-231 xenograft tumour tissue from female athymic nude mice
T2 sequence (P28074 60-263): T1 sequence (P28074 60-263)
Experimental: Seven-week-old female athymic nude mice were purchased from Harlan Laboratories (Indianapolis, USA) and housed in accordance with protocols approved by the Institutional Laboratory Animal Care and Use Committee of Wayne State University. Human breast cancer MDA-MB-231 cells suspended in 0.1 mL of serum-free DMEM/F12 cell growth medium were inoculated subcutaneously (s.c.) into the right flank of each mouse. When tumors reached a volume of around 115 mm^3, the mice were randomly allocated into three groups (seven mice per group) and treated five days a week by s.c. injection of either vehicle [1∶1∶1 v/v PBS, DMSO, Cremophore/ethanol (1∶4)] or medium containing 1.0 mg/kg of AuD6 or AuD8. Tumor length (L) and width (W) were measured every other day using a caliper, and tumor volumes were evaluated according to the standard formula (π ⋅ L ⋅ W^2)/6. Mouse weights were monitored weekly. Four mice per group were sacrificed after 27 days of treatment, or when tumors reached ∼1,800 mm^3, and the remaining three mice per group were sacrificed after 13 days to observe any early effects of treatments. The tumors were collected and weighed. Tumor tissues were used to measure proteasome inhibition and caspase-3 activation by enzymatic activity assays and by Western blot analysis.

MDA-MB-231 cells [7] = assay: Annexin-V FITC/PI apoptosis assay (flow cytometry); type: cell-based, human; conditions: MDA-MB-231, 20 µM; for cells in early stage apoptosis: 16 or 24 h (time not specified)
Experimental: Apoptosis indexes were measured using the Annexin-V fluorescein isothiocyanate (FITC) apoptosis detection kit I from by BD Pharmingen. MDA-MB-231 cells were grown to around 75% confluence, treated with gold-based complexes (20 µM) or solvent as a control for 16 or 24 h, harvested by means of a scraper and centrifugation. Cell pellets were washed twice with ice cold PBS and cells were then resuspended in 1× binding buffer at a concentration of 1•10^6 cells/mL. 100 µL of the suspension was then transferred to a 5 mL flow cytometry tube and 5 µL FITC Annexin V and 5 µL PI for double stained samples (either 5 µL of FITC Annexin V or 5 µL of PI for controls) were added. Mixtures were gently vortexed and incubated for 15 min at RT in the dark followed by addition of 400 µL 1× binding buffer to each tube. Then, analysis by flow cytometry occurred within 1 h at the Microscopy, Imaging and Cytometry Resources (MICR) Core at the Karmanos Cancer Institute, Wayne State University. Data (Figure 3) are presented as density plots of Annexin-V (x-axis) and propidium iodide (PI, y-axis) stainings. Unstained cells, cells stained with either PI or FITC Annexin-V only, and untreated cells stained with both PI and Annexin-V were used to set up compensation and quadrants. The excitation wavelength was 488 nm and the detection wavelengths were 530±15 and 620±21 nm for Annexin V and PI, respectively. Cells staining negative for both markers were considered viable since Annexin V and PI are both cell membrane impermeable while cells staining positive for both markers were considered in late apoptosis. Cells staining positive for Annexin only were considered in early apoptosis whereas cells staining positive for PI only were considered dead by a necrotic pathway. Percentages of viable, apoptotic, and necrotic cells are reported in the corner of each quadrant (Figure 3).

MDA-MB-231 xenografts [8] = assay: Immunohistochemical p27 and TUNEL staining of tumor samples; type: in vivo, female athymic nude mice; conditions: xenograft tumors, 1 mg kg^−1 d^−1
Experimental: IHC was performed using a previously reported protocol. Briefly, tumor samples were paraffin-embedded by the Pathology Core at Karmanos Cancer Institute (Detroit, MI, USA). Samples were then cut and stained for p27 or TUNEL by the BioBank at William Beaumont Hospital (Royal Oak, MI, USA). Anti-p27 (VP-P951) was from Vector Laboratories (Burlingame, CA, USA) and was used at a 1∶30 dilution followed by detection by DAKO. Samples were counterstained with DAB/Hematoxylin. TUNEL staining was performed using anti-digoxigenin and peroxidase substrate, followed by counterstaining with methyl green. In both cases, brown colored cells were considered positive.

[9] = target: T3, Purified human 20S proteasome (Homo sapiens, UniProt P28072+P28074+Q99436); assay: Proteasome activity assay on purified 20S proteasome (fluorogenic substrates); type: biochemical; conditions: 2 h incubation
T3 construct: purchased Boston Biochem (Boston, MA)
Experimental: Purified human 20S proteasome (0.5 nM) was incubated in triplicate with three different proteasomal fluorogenic substrates (20 µM) and each compound (dissolved in DMSO) at various concentrations ranging from 0.1 to 10 µM (or an equivalent volume of solvent DMSO as a control) in 100 µL of assay buffer [20 mM Tris-HCl (pH 7.5)].

[10] = read-out: IC50 Chymotrypsin-like activity
[11] = read-out: IC50 PGPH-like activity
[12] = read-out: IC50 Trypsin-like activity

Structure (SMILES)	reduction of IC50 by co-treatment with Trolox (MDA-MB-231 cells [2])	IC50 [3, 10] [nM]	IC50 [3, 11] [nM]	IC50 [3, 12] [nM]	concentration at which apoptotic morphological changes were observed (MDA-MB-231 cells [4]) [µM]	inhibition of the proteasomal CT-like pocket in tumor tissue [6] [%]	cells in early stage apoptosis (MDA-MB-231 cells [7])	apoptotic cells at late stage (upper right quadrant) (MDA-MB-231 cells [7]; 24 h) [%]	TUNEL positive (staining of tumor) (MDA-MB-231 xenografts [8]) [%]	p27 positive (immunohistochemical staining of tumor) (MDA-MB-231 xenografts [8]) [%]	IC50 [9, 10] [nM]	IC50 [9, 11] [nM]	IC50 [9, 12] [nM]	other results
N.N.[Cl][Pt][Cl] [cisplatin, cis-diammineplatinum(II) dichloride]	–	–	–	–	–	–	–	–	–	–	–	–	–	growth-inhibitory effect (MDA-MB-231 cells [1]; MDA-MB-231, 100 µM, 24 h treatment): around 40%; IC50 (MTT, inhibition of cell proliferation) (MDA-MB-231 cells [1]; MDA-MB-231, 24 h treatment): not reached; IC50 (MDA-MB-231 cells [1]; MDA-MB-231, 24 h treatment): > 100000 nM
C[N+](CC(=O)NC(C)(C)C(=O)OC(C)(C)C)=C1[S][Au-]([Br])([Br])[S]1 [AuD8, [Au^IIIBr2(dtc-Sar-AA-O(t-Bu))]]	very little effect	2900 ± 600	4500 ± 900	5700 ± 100	10	33	7–9%	74.1	~30	~95	290 ± 70	540 ± 80	610 ± 20	concentration inducing p27 accumulation (p27): below 1 µM; inhibition of tumor growth compared to control (MDA-MB-231 xenografts [5]; 27 days, p<0.05): 53%; tumor volume at end of treatment (MDA-MB-231 xenografts [5]; day 27): 849±79 mm^3; apoptotic cells at late stage (upper right quadrant) (MDA-MB-231 cells [7]; 16 h): 62.9%
C[N+](CC(=O)NCC(=O)OC(C)(C)C)=C1[S][Au-]([Br])([Br])[S]1 [AuD6, [Au^IIIBr2(dtc-Sar-AA-O(t-Bu))]]	approximately 3 fold	3300 ± 400	2300 ± 800	3000 ± 900	20	14	7–9%	49	~75	~20	420 ± 30	490 ± 90	510 ± 70	IC50 (MDA-MB-231 cells [1]; MDA-MB-231, 72 h treatment): 13000 ± 1000 nM
Cc1c(C)c2c(c(C)c1O)CCC(C)(C(=O)O)O2 (centres unmarked) [Trolox, reference compound]	–	–	–	–	–	–	–	–	–	–	–	–	–	inhibition at 100 µM (MDA-MB-231 cells [2]; Homo sapiens, MDA-MB-231, Trolox 100 µM, 24 h treatment, read-out: inhibition of tumor cell growth by Trolox alone): ~25%

From PMC3879379, “Gold(III)-Dithiocarbamato Peptidomimetics in the Forefront of the Targeted Anticancer Therapy: Preclinical Studies against Human Breast Neoplasia” (PLoS ONE, 2014)
